Assay results: paper PMC9610081, “Design and Synthesis of Aminopyrimidinyl Pyrazole Analogs as PLK1 Inhibitors Using Hybrid 3D-QSAR and Molecular Docking” (Pharmaceuticals, 2022)

Biological target: PLK1 (polo-like kinase 1) (Homo sapiens, UniProt P53350)
Assay: radiometric […]-ATP kinase assay, casein substrate, […] ATP (Reaction Biology)
Assay type: biochemical

Chain of PLK1 (polo-like kinase 1) (P53350 2-603): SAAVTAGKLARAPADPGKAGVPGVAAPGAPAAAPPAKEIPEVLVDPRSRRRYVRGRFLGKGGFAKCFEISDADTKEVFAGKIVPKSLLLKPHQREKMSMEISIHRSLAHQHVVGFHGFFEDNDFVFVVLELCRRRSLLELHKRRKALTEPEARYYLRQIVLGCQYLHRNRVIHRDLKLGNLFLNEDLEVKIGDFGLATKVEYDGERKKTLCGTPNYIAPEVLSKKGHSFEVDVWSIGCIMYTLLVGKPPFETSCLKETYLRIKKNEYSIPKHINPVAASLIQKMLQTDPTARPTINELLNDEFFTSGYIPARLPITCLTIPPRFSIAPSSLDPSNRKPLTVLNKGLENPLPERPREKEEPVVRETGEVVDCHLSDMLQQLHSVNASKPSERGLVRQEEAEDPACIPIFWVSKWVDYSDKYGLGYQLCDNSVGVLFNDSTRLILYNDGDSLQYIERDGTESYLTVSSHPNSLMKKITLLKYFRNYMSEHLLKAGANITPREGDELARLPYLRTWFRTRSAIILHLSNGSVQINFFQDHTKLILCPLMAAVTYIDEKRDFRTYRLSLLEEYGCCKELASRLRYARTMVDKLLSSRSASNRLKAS

Row | Structure (SMILES) | IC50 [nM]
1 | CCOC(=O)c1nn(-c2ccnc(Nc3ccc4c(c3)N(C(=O)N(C)C)CC4)n2)cc1/C=C/c1ccccc1 [D39, Ethyl (E)-1-(2-((1-(dimethylcarbamoyl)indolin-6-yl)amino)pyrimidin-4-yl)-4-styryl-1H-pyrazole-3-carboxylate] | 1430
2 | CN(C)C(=O)N1CCc2ccc(Nc3nccc(-n4cc(/C=C/c5ccccc5)c(C(N)=O)n4)n3)cc21 [D40, (E)-6-((4-(3-carbamoyl-4-styryl-1H-pyrazol-1-yl)pyrimidin-2-yl)amino)-N,N-dimethylindoline-1-carboxamide] | 359
